In patent US10525069B2, “Treatment of urinary tract infection” (BIOMEDICALS SWEDEN AB, priority 2014, dated 2020):

Test system: UTI
Experiment: Clinical course of UTI (occurrence, relapse, symptoms) in treated women
Assay type: in vivo, human
Settings: Example 4: person, antibiotic received twice, before treatment with the composition
Description: One wheelchair-bound person, with recurrent UTI (UTI every week) was treated according to an embodiment of the invention. Prior to the treatment, the urine of the person was tested using bacteria test strips (NITRISTIC®, RAERAD Products, Sweden) following the instructions from the manufacturer. […] The person was given a composition with 1 g calcium carbonate (pH-KALK, pH Balans AB, Sweden) together with 2 g D-mannose (DM, BECKMAN-KENKO GMBH, Germany) or 1 g citric acid (SANTA MARIA AB, Sweden) together with 2 g D-mannose (DM, BECKMAN-KENKO GMBH, Germany). The compositions were taken in an alternating administration pattern 5 times per day (see Table 2 for details). The initial treatment lasted for 4 days. […] After the initial treatment, the person continued with the treatment to prevent UTI according to Table 2 alternating pH three times a day for five months. […] After discontinuing the treatment, the person relapsed with UTI within 3 weeks.
Prior to the treatment, the urine was tested using bacteria test strips (NITRISTIC®, RAERAD Products, Sweden) following the instructions from the manufacturer.
The person was then treated according to an embodiment of the invention (see Table 4 for details). […] Furthermore the bacteria test strips were negative.

Compound: CC(C)(C)C(=O)OCOC(=O)[C@@H]1N2C(=O)[C@@H](/N=C/N3CCCCCC3)[C@H]2SC1(C)C [SELEXID]
- result of antibiotic treatment against UTI: no apparent results
